Laboratory results from ChEMBL document CHEMBL2412951, “Resonance light scattering technique as a new tool to determine the binding mode of anticancer drug oridonin to DNA” (Eur J Med Chem, 2013).
Activity calls are given as the source filed them. The rule behind the calls is not given here.

Experiments:
Type in all cases: nucleic-acid assay
Details in all cases: Bos taurus
DNA [1] = experiment: Binding affinity to calf thymus DNA at 1 ug/ml at pH 2.5 by SEM analysis
DNA [2] = experiment: Binding affinity to calf thymus DNA by Stern-Volmer plot analysis
DNA [3] = experiment: Binding affinity to calf thymus DNA at 5 X 10^-5 M by fluorescence polarization assay
DNA [4] = experiment: Binding affinity to calf thymus DNA at 90 uM at pH 2 to 8.5 by resonance light scattering analysis
Calf thymus DNA [5] = experiment: Binding affinity to calf thymus dsDNA at 1 X 10^-5 to 2 x 10^-5 M after 10 mins by UV/vis spectrophotometric analysis
DNA [6] = experiment: Binding affinity to calf thymus DNA at 10 to 160 uM by resonance light scattering analysis
DNA [7] = experiment: Binding affinity to calf thymus DNA at 10^-5 M by atomic force microscopic analysis
Calf thymus DNA [8] = experiment: Binding affinity to calf thymus double helix DNA at 90 uM by resonance light scattering analysis in presence of 0.005 to 0.2 M NaCl
DNA [9] = experiment: Binding affinity to calf thymus DNA at 1 X 10^-5 M by spectrofluorimetric analysis

SMILES: C=C1C(=O)[C@]23[C@H](O)[C@H]1CC[C@H]2[C@@]12CO[C@]3(O)[C@@H](O)[C@@H]1C(C)(C)CC[C@@H]2O
- Activity (DNA [1]): Active
- KSV (DNA [2]): 1.79 ×10⁵ /M
- Activity (DNA [3]): Active
- Activity (DNA [4]): Active
- Activity (Calf thymus DNA [5]): Active
- Activity (DNA [6]): Active
- Activity (DNA [7]): Active
- Activity (Calf thymus DNA [8]): Active
- Activity (DNA [9]): Active
